According to US10011814B2, “Salt formulations for the fermentation of marine microorganisms” (Triphase Research and Development I Corp., priority 2006, dated 2018):

Tested on: Salinispora tropica NPS021184
Experiment: Production of Salinosporamide A and analogs in 42 L fermentor culture; titers by HPLC
Conditions: for decrease of production: Ex.3, chemically defined salt formulation replacing INSTANT OCEAN, with cobalt
Protocol: Seed cultures were prepared by inoculating frozen stock of Salinispora tropica NPS021184 into seed medium. For 10 mL seed medium in a 50-mL culture tube, one frozen stock (˜1.5 mL) was used for inoculation. For 100 mL seed medium in a 500-mL Erlenmeyer flask, two frozen stocks (˜3 mL total) were used for inoculation.
The first seed cultures (either 10 mL medium in a 50-mL tube or 100 mL medium in a 500-mL Erlenmeyer flask) were incubated at 250 rpm and 28° C. for 3 to 4 days before inoculating (5% inoculum) into second seed medium with the same salt composition as used for the first seed cultures. After incubating at 250 rpm and 28° C. for 2 days, the second seed cultures (5% inoculum) were inoculated into an additional third seed culture (400 mL medium in 2.8 L Fembach flask) with the same medium, salt composition and incubation time as the second seed cultures, before inoculating into production media in the fermentor (26 L medium in a 42 L B. Braun Biostat-C fermentor).
The production medium was then supplemented with either INSTANT OCEAN® commercial salt formulation or a chemically defined salt formulation based on the salt supplement used in the seed stages. The chemically defined salt formulation consisted of: […]
The production medium for fermentation was also supplemented with CoCl2.6H2O at a concentration of 52 μg/L. No CoCl2.6H2O was added to the production medium in control samples.
3.5 mL of the fermentation culture was mixed with equal volume of EtOAc in an extraction tube to extract the various metabolites from the production culture.
(§1) The mixture was shaken for 1 hr. An aliquot of the extract (1 mL) was removed and dried under a stream of nitrogen. The dried extract was stored at −20° C. freezer before HPLC analysis. The dried extract was resuspended in 320 μL DMSO and injected into HPLC using the 00TF14 method for analysis.
The production of Salinosporamide A, NPI-0047 and NPI-2065 was monitored by Agilent HP1100 HPLC using an ACE C-18 reversed-phase column (4.6×150 mm), and solvent system consisting of water (0.01% TFA) as solvent A and acetonitrile (0.01% TFA) as solvent B. The elution was started at 100% solvent A for 1 min, 100% solvent A to 35% solvent A gradient in 7 min, held at 35% solvent A for 11 min, 35% solvent A to 100% solvent B in 8 min and held at 100% solvent B for 9 min at a flow rate of 1.5 mL/min with the detector wavelength set at 210 nm and column temperature 35° C.
The first seed culture (100 mL medium) in a 500-mL Erlenmeyer flask was incubated at 250 rpm and 28° C. for 72 hours. 20 mL of the first seed culture was inoculated into second seed culture (400 ml medium) in a 2.8 L Fernbach flask with the same medium as the first seed culture. The second seed culture was incubated at 250 rpm and 28° C. for 48 hours. 200 mL of the […] was inoculated into a B. Braun B-Plus 5 L fermentor containing 4 L third seed medium with the same composition as the first and second seed medium. The thirds seed fermentor culture was incubated at 300 rpm and 28° C. with the airflow rate of 2 L/min for 36 hours. 1.5 L of the third seed culture was inoculated into 26 L production medium in a 42 L B. Braun Biostat-C fermentor.
The production fermentor culture was operated at 200 rpm and 28° C. with the airflow rate of 13 L/min.
as §1, with “3.5 mL of the fermentation culture was mixed with equal volume of EtOAc in an extraction tube to extract the various metabolites from the production culture. The mixture” for “The mixture”, “was shaken on the shaker for 1” for “was shaken for 1”
Alternatively, the production of the compounds can be achieved in a 42 L fermentor system using strain NPS21184. […]

[1] = Ex.3, cobalt in seed and production media with INSTANT OCEAN vs no cobalt

| SMILES | decrease of production [%] | decrease of production, on average [1] [%] | increase of production, on average [1] [%] |
| --- | --- | --- | --- |
| CC[C@H]1C(=O)N[C@@]2([C@@H](O)[C@@H]3C=CCCC3)C(=O)O[C@@]12C [NPI-0047, Salinosporamide B] | 47.3 | 48.1 | – |
| C[C@@]12OC(=O)[C@]1([C@@H](O)[C@@H]1C=CCCC1)NC(=O)[C@H]2CCCl [NPI-2065] | 7.9 | 23.2 | – |
| C[C@@]12OC(=O)[C@]1([C@@H](O)[C@@H]1C=CCCC1)NC(=O)[C@@H]2CCCl [Salinosporamide A] | 8.7 | – | 14.3 |
